According to publication PMC9098913, “In vitro reconstitution of Escherichia coli divisome activation” (Nature Communications, 2022):

Assay: Diffusion coefficient of His-tagged FtsAs and His-SUMO on Tris-NTA membranes (FRAP)
Description: To study colocalization of His-tagged variants of FtsA, 0.5–1 µM of Cy5 labelled His-tagged FtsAs were added to the chamber, incubated for 20 min and washed 6x with reaction buffer. […] To control the density of membrane-bound FtsA, SUVs without and with Tris-NTA lipids were mixed to obtain the respective Tris-NTA concentrations. To perform FRET/FRAP experiments, equimolar concentrations of Cy3 and Cy5 labelled His-tagged FtsAs (total 0.5–1 µM) or His-SUMO-Cys were added to a chamber and treated as above. […] FRAP experiments were performed as described before.
Bleaching the acceptor dye leads to an increase in the donor intensity, which can be used to quantify the Foerster Resonance energy transfer (FRET)[48]. FRET efficiency was quantified with E%=Ipost/Ipost+Ipre⋅100 , where Ipost is the intensity of the […] and Ipre is the […]. […] To extract the contribution of both processes, we adjusted a routine recently published by Gerganova et al.[33]. In short, the code provides the contribution of both modes of recovery by analysing the shape of the fluorescence recovery profile. […] Contribution of diffusion leads to a change of the slope of the outer borders of the bleached region (S4h right). Thus, by measuring the change of the slope of the border recovery, diffusion and simple on/off binding can be distinguished. We developed “FRAPdiff”, a graphical user interface, which uses the original fit routine by David Rutkowski. It can be used directly on.tiff movies with annotated bleach regions as ImageJ ROIs. In addition, we added optional bleach correction, user selectable projection axis (x or y), and optional mirroring of the recovery profiles, if bleaching was not symmetric. The original fit routine for estimating the recovery and diffusion dynamics can be found at https://github.com/davidmrutkowski/1DReflectingDiffusion. FRAPdiff is available at 10.5281/zenodo.6400639[49] under the GPLv3 open-source license.

FtsA-His6: FtsA WT (1-405) with amphipathic helix replaced by C-terminal His-tag
Diffusion Coefficient (0.1% Tris NTA, + FtsZ, mean (n: WT 2, R286W 3)): 0.07 µm2/s
Diffusion Coefficient (0.1% Tris NTA, + FtsZ, replicate Exp1): 0.14 µm2/s
Diffusion Coefficient (0.1% Tris NTA, + FtsZ, replicate Exp2): 0.000245 µm2/s
Diffusion Coefficient (0.1% Tris NTA, without FtsZ, replicate Exp1): 0.35 µm2/s
Diffusion Coefficient (0.1% Tris NTA, without FtsZ, replicate Exp2): 0.29 µm2/s
Diffusion Coefficient (0.4% Tris NTA, + FtsZ, mean (n: WT 2, R286W 3)): 0.0146 µm2/s
Diffusion Coefficient (0.4% Tris NTA, + FtsZ, replicate Exp1): 0.0175 µm2/s
Diffusion Coefficient (0.4% Tris NTA, + FtsZ, replicate Exp2): 0.0117 µm2/s
Diffusion Coefficient (0.4% Tris NTA, without FtsZ, replicate Exp1): 0.11 µm2/s
Diffusion Coefficient (0.4% Tris NTA, without FtsZ, replicate Exp2): 0.10 µm2/s
Diffusion Coefficient (0.6% Tris NTA, + FtsZ, mean (n: WT 5, R286W 5)): 0.0113 µm2/s
Diffusion Coefficient (0.6% Tris NTA, + FtsZ, replicate Exp1): 0.02 µm2/s
Diffusion Coefficient (0.6% Tris NTA, + FtsZ, replicate Exp2): 0.01 µm2/s
Diffusion Coefficient (0.6% Tris NTA, + FtsZ, replicate Exp3): 0.0152 µm2/s
Diffusion Coefficient (0.6% Tris NTA, + FtsZ, replicate Exp4): 0.00625 µm2/s
Diffusion Coefficient (0.6% Tris NTA, + FtsZ, replicate Exp5): 0.00411 µm2/s
Diffusion Coefficient (0.6% Tris NTA, without FtsZ, mean (n: WT 4, R286W 5, SUMO 4)): 0.03 µm2/s
Diffusion Coefficient (0.6% Tris NTA, without FtsZ, replicate Exp1): 0.0256 µm2/s
Diffusion Coefficient (0.6% Tris NTA, without FtsZ, replicate Exp2): 0.00783 µm2/s
Diffusion Coefficient (0.6% Tris NTA, without FtsZ, replicate Exp3): 0.0422 µm2/s
Diffusion Coefficient (0.6% Tris NTA, without FtsZ, replicate Exp4): 0.046 µm2/s
Diffusion Coefficient (0.8% Tris NTA, + FtsZ, mean): 0.012 µm2/s
Diffusion Coefficient (0.8% Tris NTA, + FtsZ, replicate Exp1): 0.00842 µm2/s
Diffusion Coefficient (0.8% Tris NTA, + FtsZ, replicate Exp2): 0.00437 µm2/s
Diffusion Coefficient (0.8% Tris NTA, + FtsZ, replicate Exp3): 0.00795 µm2/s
Diffusion Coefficient (0.8% Tris NTA, + FtsZ, replicate Exp4): 0.03 µm2/s
Diffusion Coefficient (0.8% Tris NTA, + FtsZ, replicate Exp5): 0.00835 µm2/s
Diffusion Coefficient (0.8% Tris NTA, without FtsZ, mean): 0.0135 µm2/s
Diffusion Coefficient (0.8% Tris NTA, without FtsZ, replicate Exp1): 0.0179 µm2/s
Diffusion Coefficient (0.8% Tris NTA, without FtsZ, replicate Exp3): 8.35e-15 µm2/s
Diffusion Coefficient (0.8% Tris NTA, without FtsZ, replicate Exp4): 0.0124 µm2/s
Diffusion Coefficient (0.8% Tris NTA, without FtsZ, replicate Exp5): 0.0374 µm2/s
Diffusion Coefficient (1% Tris NTA, + FtsZ, mean): 0.02 µm2/s
Diffusion Coefficient (1% Tris NTA, + FtsZ, replicate Exp1): 0.0115 µm2/s
Diffusion Coefficient (1% Tris NTA, + FtsZ, replicate Exp2): 0.00322 µm2/s
Diffusion Coefficient (1% Tris NTA, + FtsZ, replicate Exp3): 0.00542 µm2/s
Diffusion Coefficient (1% Tris NTA, + FtsZ, replicate Exp4): 0.00574 µm2/s
Diffusion Coefficient (1% Tris NTA, + FtsZ, replicate Exp5): 0.07 µm2/s
Diffusion Coefficient (1% Tris NTA, + FtsZ, replicate Exp6): 0.0435 µm2/s
Diffusion Coefficient (1% Tris NTA, + FtsZ, replicate Exp7): 0.000437 µm2/s
Diffusion Coefficient (1% Tris NTA, without FtsZ, mean): 0.0254 µm2/s
Diffusion Coefficient (1% Tris NTA, without FtsZ, replicate Exp1): 0.0438 µm2/s
Diffusion Coefficient (1% Tris NTA, without FtsZ, replicate Exp2): 0.000108 µm2/s
Diffusion Coefficient (1% Tris NTA, without FtsZ, replicate Exp3): 6.32e-6 µm2/s
Diffusion Coefficient (1% Tris NTA, without FtsZ, replicate Exp4): 0.06 µm2/s
Diffusion Coefficient (Tris 0.10 %, + FtsZ): 0.07 µm2/s
Diffusion Coefficient (Tris 0.10 %, without FtsZ): 0.32 µm2/s
Diffusion Coefficient (Tris 0.40 %, + FtsZ): 0.0146 µm2/s
Diffusion Coefficient (Tris 0.40 %, without FtsZ): 0.11 µm2/s
Diffusion Coefficient (Tris 0.60 %, + FtsZ): 0.0113 µm2/s
Diffusion Coefficient (Tris 0.60 %, without FtsZ): 0.03 µm2/s
Diffusion Coefficient (Tris 0.80 %, + FtsZ): 0.012 µm2/s
Diffusion Coefficient (Tris 0.80 %, without FtsZ): 0.0135 µm2/s
Diffusion Coefficient (Tris 1.00 %, + FtsZ): 0.02 µm2/s
Diffusion Coefficient (Tris 1.00 %, without FtsZ): 0.0254 µm2/s
Diffusion Coefficient (Tris 2.00 %, + FtsZ): 0.000263 µm2/s
Diffusion Coefficient (Tris 2.00 %, without FtsZ): 0.00604 µm2/s
Diffusion Coefficient ([…] Tris NTA, + FtsZ, mean (n: WT 2, R286W 3)): 0.03 µm2/s
Diffusion Coefficient ([…] Tris NTA, + FtsZ, replicate Exp1): 0.05 µm2/s
Diffusion Coefficient ([…] Tris NTA, + FtsZ, replicate Exp2): 0.0108 µm2/s
Diffusion Coefficient ([…] Tris NTA, without FtsZ, replicate Exp1): 0.11 µm2/s
Diffusion Coefficient ([…] Tris NTA, without FtsZ, replicate Exp2): 0.14 µm2/s
Diffusion Coefficient ([…] Tris-NTA, + N (FtsNcyto), mean): 1.72E-05 µm2/s
Diffusion Coefficient ([…] Tris-NTA, + N/Z, Exp. 1): 1.69E-05 µm2/s
Diffusion Coefficient ([…] Tris-NTA, + N/Z, Exp. 2): 1.87E-06 µm2/s
Diffusion Coefficient ([…] Tris-NTA, + N/Z, Exp. 3): 5.64E-12 µm2/s
Diffusion Coefficient ([…] Tris-NTA, + N/Z, mean): 6.26E-06 µm2/s
Diffusion Coefficient ([…] Tris-NTA, + N, Exp. 1): 1.23E-05 µm2/s
Diffusion Coefficient ([…] Tris-NTA, + N, Exp. 2): 2.69E-05 µm2/s
Diffusion Coefficient ([…] Tris-NTA, + N, Exp. 3): 1.23E-05 µm2/s
Diffusion Coefficient ([…] Tris-NTA, + Z (FtsZ), mean): 1.67E-03 µm2/s
Diffusion Coefficient ([…] Tris-NTA, + Z, Exp. 1): 3.64E-05 µm2/s
Diffusion Coefficient ([…] Tris-NTA, + Z, Exp. 2): 4.36E-03 µm2/s
Diffusion Coefficient ([…] Tris-NTA, + Z, Exp. 3): 1.74E-03 µm2/s
Diffusion Coefficient ([…] Tris-NTA, + Z, Exp. 4): 5.51E-04 µm2/s
Diffusion Coefficient ([…] Tris-NTA, alone, Exp. 1): 1.17E-02 µm2/s
Diffusion Coefficient ([…] Tris-NTA, alone, Exp. 2): 2.57E-05 µm2/s
Diffusion Coefficient ([…] Tris-NTA, alone, Exp. 3): 3.15E-03 µm2/s
Diffusion Coefficient ([…] Tris-NTA, alone, Exp. 4): 7.92E-04 µm2/s
Diffusion Coefficient ([…] Tris-NTA, alone, mean): 3.92E-03 µm2/s
